Key:
human Nav1.5 = molecular target: T1, human Nav1.5 (Homo sapiens, UniProt Q14524); experiment: IonWorks Quattro automated patch-clamp, Nav1.5 (selectivity against Nav1.7); format: cell-based; conditions: IonWorks measurement, HEK 293 cells, inactivated state block
T1 construct: expressed in transfected cells; host or cells: HEK 293
Method: Compounds were tested on human Nav1.7 and Nav1.5 channels stably expressed in HEK 293 cells. […] Cells were sealed on a planar substrate using the Population Patch […] (PPC) technology. Electrical access was obtained using both nystatin and amphotericin. A double-pulse protocol was used for the determination of IC50 values for inactivated state block. Nav1.7 and Nav1.5 expressing cells were voltage clamped at −100 mV and −110 mV, respectively. A depolarizing prepulse to −10 mV (Nav1.7) or −30 mV (Nav1.5) for 1000 ms followed by a 10 ms repolarization to −100 mV (Nav1.7) or −110 mV (Nav1.5) was given to generate fractional channel inactivation of 50%, followed by a 10 ms test pulse to −10 mV (Nav1.7) or −30 mV (Nav1.5) to measure peak current in control conditions and after compound addition. The following recording solutions were used (mM). External: 150 NaCl, 2 CaCl2, 5 KCl, 1 Mg Cl2, 10 HEPES, 12 Dextrose; internal: 120 CsF, 30 CsCl, 10 EGTA, 5 HEPES, 5 NaF, 2 MgCl2.
For all electrophysiology experiments, offline analysis was used to determine percent inhibition as a function of drug concentration. IC50 values were determined by fitting to the Hill equation.

human Nav1.7 = molecular target: T2, human Nav1.7 (Homo sapiens, UniProt Q15858); experiment: IonWorks Quattro automated patch-clamp, inactivated state block of Nav1.7; format: cell-based; conditions: channels stably expressed in HEK 293 cells; double-pulse protocol, inactivated state block; read-out: potency for the Nav 1.7 sodium ion channel (IC50, as measured by IonWorks)
T2 construct: expressed in transfected cells; host or cells: HEK 293
Summary of the method: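 HEK293 stable lines, IonWorks PPC patch clamp (nystatin/amphotericin access); double-pulse protocol giving ~50% inactivation: holding −100 mV (Nav1.7) or −110 mV (Nav1.5), 1000 ms prepulse to −10 or −30 mV, 10 ms repolarization, 10 ms test pulse. Peak current inhibition versus concentration fitted to Hill equation for IC50.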

T1 sequence (Q14524 whole entry): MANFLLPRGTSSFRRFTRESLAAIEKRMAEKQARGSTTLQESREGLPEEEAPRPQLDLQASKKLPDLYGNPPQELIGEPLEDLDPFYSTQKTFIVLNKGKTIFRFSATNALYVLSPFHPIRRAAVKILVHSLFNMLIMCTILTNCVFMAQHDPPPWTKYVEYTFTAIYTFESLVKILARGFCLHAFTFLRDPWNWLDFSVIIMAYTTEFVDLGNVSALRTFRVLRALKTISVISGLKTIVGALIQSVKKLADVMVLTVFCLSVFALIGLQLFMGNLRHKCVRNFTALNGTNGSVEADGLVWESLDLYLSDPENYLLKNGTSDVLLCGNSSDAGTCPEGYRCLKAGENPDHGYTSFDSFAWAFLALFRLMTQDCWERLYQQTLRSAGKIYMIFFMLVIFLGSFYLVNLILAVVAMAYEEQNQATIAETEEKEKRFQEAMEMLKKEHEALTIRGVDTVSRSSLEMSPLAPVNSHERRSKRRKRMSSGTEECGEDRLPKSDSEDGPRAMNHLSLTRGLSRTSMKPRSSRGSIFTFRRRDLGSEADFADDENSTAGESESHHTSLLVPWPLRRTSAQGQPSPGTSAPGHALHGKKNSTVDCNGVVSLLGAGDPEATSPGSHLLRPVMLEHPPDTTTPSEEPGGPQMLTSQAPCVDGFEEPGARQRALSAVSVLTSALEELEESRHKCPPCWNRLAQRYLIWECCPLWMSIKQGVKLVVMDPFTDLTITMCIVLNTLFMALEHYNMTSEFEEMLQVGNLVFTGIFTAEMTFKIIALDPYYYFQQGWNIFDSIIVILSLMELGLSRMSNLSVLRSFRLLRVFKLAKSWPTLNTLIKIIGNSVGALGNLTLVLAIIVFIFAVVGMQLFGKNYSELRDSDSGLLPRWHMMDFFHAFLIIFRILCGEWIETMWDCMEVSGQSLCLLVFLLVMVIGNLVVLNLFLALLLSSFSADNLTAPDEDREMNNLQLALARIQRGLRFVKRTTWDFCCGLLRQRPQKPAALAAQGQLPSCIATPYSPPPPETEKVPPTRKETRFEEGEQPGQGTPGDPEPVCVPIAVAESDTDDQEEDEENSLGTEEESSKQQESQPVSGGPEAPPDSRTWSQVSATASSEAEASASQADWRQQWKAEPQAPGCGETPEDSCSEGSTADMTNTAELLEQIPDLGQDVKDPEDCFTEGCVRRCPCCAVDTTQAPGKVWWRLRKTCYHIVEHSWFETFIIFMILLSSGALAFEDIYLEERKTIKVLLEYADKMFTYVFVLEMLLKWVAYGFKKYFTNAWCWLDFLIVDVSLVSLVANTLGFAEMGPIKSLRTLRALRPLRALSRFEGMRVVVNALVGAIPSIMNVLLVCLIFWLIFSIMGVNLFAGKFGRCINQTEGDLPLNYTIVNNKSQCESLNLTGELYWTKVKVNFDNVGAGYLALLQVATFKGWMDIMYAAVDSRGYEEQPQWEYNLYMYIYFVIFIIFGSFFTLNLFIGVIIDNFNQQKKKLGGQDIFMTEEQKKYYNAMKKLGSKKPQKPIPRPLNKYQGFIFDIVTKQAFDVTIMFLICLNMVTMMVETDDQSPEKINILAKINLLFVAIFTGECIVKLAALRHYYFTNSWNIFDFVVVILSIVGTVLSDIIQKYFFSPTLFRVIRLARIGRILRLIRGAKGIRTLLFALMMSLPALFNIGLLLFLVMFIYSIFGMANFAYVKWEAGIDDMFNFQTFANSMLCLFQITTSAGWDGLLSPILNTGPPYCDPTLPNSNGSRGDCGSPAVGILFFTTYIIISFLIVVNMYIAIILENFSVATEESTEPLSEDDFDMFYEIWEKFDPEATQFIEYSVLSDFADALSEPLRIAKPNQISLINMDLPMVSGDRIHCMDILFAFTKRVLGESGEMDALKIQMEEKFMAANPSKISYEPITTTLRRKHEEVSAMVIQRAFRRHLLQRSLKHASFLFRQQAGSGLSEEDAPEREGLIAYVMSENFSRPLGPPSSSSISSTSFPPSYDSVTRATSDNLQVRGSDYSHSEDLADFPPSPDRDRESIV
T2 sequence (Q15858 whole entry): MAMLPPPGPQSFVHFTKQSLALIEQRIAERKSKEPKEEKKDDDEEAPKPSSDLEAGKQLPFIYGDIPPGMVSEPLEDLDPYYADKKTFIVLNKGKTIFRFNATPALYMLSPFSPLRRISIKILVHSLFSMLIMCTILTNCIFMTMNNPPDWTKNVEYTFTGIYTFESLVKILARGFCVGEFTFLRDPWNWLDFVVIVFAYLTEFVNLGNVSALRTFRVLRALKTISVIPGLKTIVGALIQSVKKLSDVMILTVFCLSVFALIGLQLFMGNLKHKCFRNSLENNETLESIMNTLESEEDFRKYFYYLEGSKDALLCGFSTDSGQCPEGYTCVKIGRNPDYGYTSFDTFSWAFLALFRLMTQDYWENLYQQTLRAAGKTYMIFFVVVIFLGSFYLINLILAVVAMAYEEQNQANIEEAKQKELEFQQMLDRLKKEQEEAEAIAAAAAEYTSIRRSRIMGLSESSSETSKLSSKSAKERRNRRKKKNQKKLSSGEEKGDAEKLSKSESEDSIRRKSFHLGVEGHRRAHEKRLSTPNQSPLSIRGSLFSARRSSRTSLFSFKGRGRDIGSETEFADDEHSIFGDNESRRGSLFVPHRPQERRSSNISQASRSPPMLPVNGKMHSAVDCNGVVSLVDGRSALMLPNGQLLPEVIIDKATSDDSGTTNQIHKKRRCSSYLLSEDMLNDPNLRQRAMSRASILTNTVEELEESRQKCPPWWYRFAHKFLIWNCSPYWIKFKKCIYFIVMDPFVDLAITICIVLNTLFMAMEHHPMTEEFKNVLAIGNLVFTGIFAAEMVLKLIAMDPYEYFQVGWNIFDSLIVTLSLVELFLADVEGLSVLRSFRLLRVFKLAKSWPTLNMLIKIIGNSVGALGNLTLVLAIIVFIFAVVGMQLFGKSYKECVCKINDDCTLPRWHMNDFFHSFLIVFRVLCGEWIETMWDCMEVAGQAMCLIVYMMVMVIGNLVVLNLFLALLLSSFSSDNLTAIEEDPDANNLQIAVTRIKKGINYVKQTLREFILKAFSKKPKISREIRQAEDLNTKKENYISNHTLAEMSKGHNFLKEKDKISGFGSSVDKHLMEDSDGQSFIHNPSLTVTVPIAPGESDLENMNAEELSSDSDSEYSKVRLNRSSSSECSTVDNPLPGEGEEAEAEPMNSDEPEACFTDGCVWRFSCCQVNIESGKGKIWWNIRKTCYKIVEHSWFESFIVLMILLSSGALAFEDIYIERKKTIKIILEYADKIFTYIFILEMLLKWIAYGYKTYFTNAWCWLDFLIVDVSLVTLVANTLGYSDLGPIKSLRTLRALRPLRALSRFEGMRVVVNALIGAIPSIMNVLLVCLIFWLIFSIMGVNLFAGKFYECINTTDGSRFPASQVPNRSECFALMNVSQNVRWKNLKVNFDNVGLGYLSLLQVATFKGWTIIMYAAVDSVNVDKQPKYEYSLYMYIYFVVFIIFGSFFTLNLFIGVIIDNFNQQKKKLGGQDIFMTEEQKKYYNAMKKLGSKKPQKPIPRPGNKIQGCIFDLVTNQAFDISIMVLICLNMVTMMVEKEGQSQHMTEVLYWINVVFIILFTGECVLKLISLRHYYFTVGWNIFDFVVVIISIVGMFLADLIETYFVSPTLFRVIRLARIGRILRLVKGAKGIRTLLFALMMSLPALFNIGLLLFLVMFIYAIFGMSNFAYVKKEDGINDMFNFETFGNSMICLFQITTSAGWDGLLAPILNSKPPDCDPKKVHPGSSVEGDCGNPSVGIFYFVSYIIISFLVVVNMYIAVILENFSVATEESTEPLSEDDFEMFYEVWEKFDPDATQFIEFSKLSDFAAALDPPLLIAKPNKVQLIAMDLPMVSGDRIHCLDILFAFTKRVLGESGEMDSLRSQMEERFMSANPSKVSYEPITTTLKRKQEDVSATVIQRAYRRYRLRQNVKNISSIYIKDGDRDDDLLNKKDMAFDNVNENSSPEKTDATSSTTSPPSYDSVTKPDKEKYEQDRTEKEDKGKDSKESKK

| Structure (SMILES) | ratio of Nav 1.7 potency:Nav 1.5 potency (human Nav1.5) | IC50 (human Nav1.7) [nM] |
| --- | --- | --- |
| C[C@H](CCN)NCCCCNc1cc(F)c(S(=O)(=O)Nc2ncc(F)s2)cc1Cl [Ex 16-25, 4-[(4-{[(1R)-3-amino-1-methylpropyl]amino}butyl)amino]-5-chloro-2-fluoro-N-(5-fluoro-1,3-thiazol-2-yl)-benzenesulfonamide] | > 1270 | 26 |
| CC(C)(CCN)NCCCCNc1cc(F)c(S(=O)(=O)Nc2ncc(F)s2)cc1Cl [Ex 16-27, 4-({4-[(3-amino-1,1-dimethylpropyl)amino]butyl}amino)-5-chloro-2-fluoro-N-(5-fluoro-1,3-thiazol-2-yl)-benzenesulfonamide] | > 1737 | 19 |
| CNCCCNCCCCNc1cc(F)c(S(=O)(=O)Nc2ncc(F)s2)cc1Cl [Ex 16-28, 5-chloro-2-fluoro-N-(5-fluoro-1,3-thiazol-2-yl)-4-[(4-{[3-(methylamino)-propyl]amino}butyl)amino]-benzenesulfonamide] | > 1320 | 25 |
| C[C@@H](N)CCNCCCCNc1cc(F)c(S(=O)(=O)Nc2ncc(F)s2)cc1Cl [Ex 16-30, 4-[(4-{[(3R)-3-amino-butyl]amino}butyl)amino]-5-chloro-2-fluoro-N-(5-fluoro-1,3-thiazol-2-yl)benzene-sulfonamide] | > 2357 | 14 |
| NCCCNCCCCNc1cc(F)c(S(=O)(=O)Nc2ncns2)cc1Cl [Ex 16-32, 4-({4-[(3-aminopropyl)-amino]butyl}amino)-5-chloro-2-fluoro-N-1,2,4-thiadiazol-5-ylbenzene-sulfonamide] | > 673 | 49 |
| CNCCNCCCCNc1cc(F)c(S(=O)(=O)Nc2ncns2)cc1Cl [Ex 16-48, 5-chloro-2-fluoro-4-[(4-{[2-(methylamino)ethyl]amino}-butyl)amino]-N-1,2,4-thiadiazol-5-ylbenzene-sulfonamide] | > 3750 | 8.8 |
| NCCNCCCCNc1cc(F)c(S(=O)(=O)Nc2ncc(F)s2)cc1Cl [Ex 16-57, 4-({4-[(2-aminoethyl)-amino]butyl}amino)-5-chloro-2-fluoro-N-(5-fluoro-1,3-thiazol-2-yl) benzene-sulfonamide] | > 4400 | 7.5 |
| C[C@H](CN)NCCCCNc1cc(F)c(S(=O)(=O)Nc2ncc(F)s2)cc1Cl [Ex 16-59, 4-[(4-{[(1R)-2-amino-1-methylethyl]amino}butyl)-amino]-5-chloro-2-fluoro-N-(5-fluoro-1,3-thiazol-2-yl)-benzenesulfonamide] | > 1941 | 17 |
| NCC1(NCCCCNc2cc(F)c(S(=O)(=O)Nc3ncc(F)s3)cc2Cl)CCC1 [Ex 16-62, 4-[(4-{[1-(aminomethyl)cyclobutyl]amino}butyl)amino]-5-chloro-2-fluoro-N-(5-fluoro-1,3-thiazol-2-yl)benzenesulfonamide] | > 917 | 36 |
| N[C@H]1CCC[C@H]1NCCCCNc1cc(F)c(S(=O)(=O)Nc2ncc(F)s2)cc1Cl [Ex 16-64, 4-[(4-{[(1R,2S)-2-aminocyclopentyl]amino}butyl)amino]-5-chloro-2-fluoro-N-(5-fluoro-1,3-thiazol-2-yl) benzenesulfonamide] | > 1430 | 23 |
| C[C@@H](CN)NCCCCNc1cc(F)c(S(=O)(=O)Nc2nccs2)cc1Cl [Ex 16-68, 4-[(4-{[(1S)-2-amino-1-methylethyl]amino}butyl)amino]-5-chloro-2-fluoro-N-1,3-thiazol-2-ylbenzenesulfonamide] | > 1650 | 20 |
| N[C@H]1CCC[C@@H]1NCCCCNc1cc(F)c(S(=O)(=O)Nc2ncns2)cc1Cl [Ex 16-70, 4-[(4-{[(1S,2S)-2-aminocyclopentyl]amino}butyl)amino]-5-chloro-2-fluoro-N-1,2,4-thiadiazol-5-ylbenzenesulfonamide] | > 2710 | 8.5 |
| N[C@H]1CCC[C@@H]1NCCCCNc1cc(F)c(S(=O)(=O)Nc2ncc(F)s2)cc1Cl [Ex 16-71, 4-[(4-{[(1S,2S)-2-aminocyclopentyl]amino}butyl)amino]-5-chloro-2-fluoro-N-(5-fluoro-1,3-thiazol-2-yl)benzenesulfonamide] | > 4710 | 7 |
| O=S(=O)(Nc1nccs1)c1cc(Cl)c(NCCCCNC[C@@H]2CCN2)cc1F [Ex 16-74, 4-[(4-{[(2S)-azetidin-2-ylmethyl]amino}butyl)amino]-5-chloro-2-fluoro-N-1,3-thiazol-2-ylbenzenesulfonamide] | > 429 | 77 |
| O=S(=O)(Nc1nccs1)c1cc(Cl)c(NCCCCNC[C@H]2CCN2)cc1F [Ex 16-75, 4-[(4-{[(2R)-azetidin-2-ylmethyl]amino}butyl)amino]-5-chloro-2-fluoro-N-1,3-thiazol-2-ylbenzenesulfonamide] | > 805 | 41 |
| O=S(=O)(Nc1ncns1)c1cc(Br)c(NCCCCNC[C@@H]2CCN2)cc1F [Ex 16-76, 4-[(4-{[(2S)-azetidin-2-ylmethyl]amino}butyl)amino]-5-bromo-2-fluoro-N-1,2,4-thiadiazol-5-ylbenzenesulfonamide] | > 1940 | 17 |
| O=S(=O)(Nc1ncns1)c1cc(Br)c(NCCCCNC[C@H]2CCN2)cc1F [Ex 16-77, 4-[(4-{[(2R)-azetidin-2-ylmethyl]amino}butyl)amino]-5-bromo-2-fluoro-N-1,2,4-thiadiazol-5-ylbenzenesulfonamide] | > 1380 | 24 |
| C[C@H](CCN)NCCCCNc1cc(F)c(S(=O)(=O)Nc2ncns2)cc1Br [Ex 16-79, 4-[4-[[(1R)-3-amino-1-methyl-propyl]amino]butylamino]-5-bromo-2-fluoro-N-(1,2,4-thiadiazol-5-yl)benzenesulfonamide] | 4260 | 5.4 |
| C[C@H](N)CNCCCCNc1cc(F)c(S(=O)(=O)Nc2ncns2)cc1Br [Ex 16-80, 4-[4-[[(2S)-2-aminopropyl]amino]butylamino]-5-bromo-2-fluoro-N-(1,2,4-thiadiazol-5-yl)benzenesulfonamide] | > 10600 | 3.1 |
| NC1CCC1NCCCCNc1cc(F)c(S(=O)(=O)Nc2ncns2)cc1Cl (stereo not shown) [Ex 16-81, 4-[4-[(2-aminocyclobutyl)amino]butylamino]-5-chloro-2-fluoro-N-(1,2,4-thiadiazol-5-yl) benzenesulfonamide] | > 6700 | 4.9 |
| CC(C)C[C@@H](CNCCCCNc1cc(F)c(S(=O)(=O)Nc2ncc(F)s2)cc1Cl)[C@@H](C)N [Ex 16-84, 4-((4-(((S)-2-((R)-1-aminoethyl)-4-methylpentyl)-amino)butyl)amino)-5-chloro-2-fluoro-N-(5-fluorothiazol-2-yl)benzenesulfonamide] | > 5400 | 6.1 |
| CC(C)C[C@@H](CNCCCCNc1cc(F)c(S(=O)(=O)Nc2ncns2)cc1Cl)[C@@H](C)N [Ex 16-85, 4-((4-(((S)-2-((R)-1-aminoethyl)-4-methylpentyl)-amino)butyl)amino)-5-chloro-2-fluoro-N-(1,2,4-thiadiazol-5-yl) benzenesulfonamide] | > 7330 | 4.5 |
| N[C@@H]1CCC[C@H]1NCCCCNc1cc(F)c(S(=O)(=O)Nc2ncns2)cc1F [Ex 16-86, 4-[4-[[(1R,2R)-2-aminocyclopentyl]amino]butylamino]-2,5-difluoro-N-(1,2,4-thiadiazol-5-yl)benzenesulfonamide] | > 850 | 39 |
| NCCNCCCCNc1cc(F)c(S(=O)(=O)Nc2ncns2)cc1Br [Ex 16-88, 4-[4-(2-aminoethylamino)butylamino]-5-bromo-2-fluoro-N-(1,2,4-thiadiazol-5-yl)benzenesulfonamide] | > 3400 | 9.6 |
| CCNCCNCCCCNc1cc(F)c(S(=O)(=O)Nc2ncns2)cc1Br [Ex 16-92, 5-bromo-4-[4-[2-(ethylamino)ethylamino]butylamino]-2-fluoro-N-(1,2,4-thiadiazol-5-yl)benzenesulfonamide] | > 9700 | 3.4 |
| N[C@@H]1CCC[C@@H]1NCCCCNc1cc(F)c(S(=O)(=O)Nc2ncns2)cc1Br [Ex 16-93, 4-[4-[[(1S,2R)-2-aminocyclopentyl]amino]butylamino]-5-bromo-2-fluoro-N-(1,2,4-thiadiazol-5-yl)benzenesulfonamide] | > 800 | 41 |
